Experiments:
Assay type in all cases: ADME
[1] = The drug is tested on Bifidobacterium adolescentis strain: DSM20083 for biotransformation under anaerobic condition. The drug concentrations were measured over 6 timepoints collected between 0 and 12 hours of incubation by liquid-chromatography-coupled mass spectrometry (LC–MS); parameters: dose 5 uM, timepoint 0, 1.5, 3, 6, 9, 12 hours; conditions: 5 µM
[2] = The drug is tested on Streptococcus anginosus strain: DSM20563 for biotransformation under anaerobic condition. The drug concentrations were measured over 6 timepoints collected between 0 and 12 hours of incubation by liquid-chromatography-coupled mass spectrometry (LC–MS); parameters: dose 5 uM, timepoint 0, 1.5, 3, 6, 9, 12 hours; conditions: 5 µM
[3] = The drug is tested on Eubacterium rectale strain: DSM17629 for biotransformation under anaerobic condition. The drug concentrations were measured over 6 timepoints collected between 0 and 12 hours of incubation by liquid-chromatography-coupled mass spectrometry (LC–MS); parameters: dose 5 uM, timepoint 0, 1.5, 3, 6, 9, 12 hours; conditions: agathobacter rectalis, 5 µM
[4] = The drug is tested on the gut metagenome community of A-02 with ENA study accession number: PRJEB31790 for biotransformation under microaerobic condition. The drug concentrations were measured over 7 timepoints collected between 0 and 12 hours of incubation by liquid-chromatography-coupled mass spectrometry (LC–MS); parameters: dose 5 uM, timepoint 0, 0.75, 1.5, 3, 6, 9, 12 hours; conditions: 5 µM
[5] = The drug is tested on the gut metagenome community of A-08 with ENA study accession number: PRJEB31790 for biotransformation under microaerobic condition. The drug concentrations were measured over 7 timepoints collected between 0 and 12 hours of incubation by liquid-chromatography-coupled mass spectrometry (LC–MS); parameters: dose 5 uM, timepoint 0, 0.75, 1.5, 3, 6, 9, 12 hours; conditions: 5 µM
[6] = The drug is tested on the gut metagenome community of P-03 with ENA study accession number: PRJEB31790 for biotransformation under microaerobic condition. The drug concentrations were measured over 7 timepoints collected between 0 and 12 hours of incubation by liquid-chromatography-coupled mass spectrometry (LC–MS); parameters: dose 5 uM, timepoint 0, 0.75, 1.5, 3, 6, 9, 12 hours; conditions: 5 µM
[7] = The drug is tested on the gut metagenome community of T-04 with ENA study accession number: PRJEB31790 for biotransformation under anaerobic condition. The drug concentrations were measured over 7 timepoints collected between 0 and 12 hours of incubation by liquid-chromatography-coupled mass spectrometry (LC–MS); parameters: dose 5 uM, timepoint 0, 0.75, 1.5, 3, 6, 9, 12 hours; conditions: 5 µM
[8] = The drug is tested on Streptococcus sanguinis strain: DSM20567 for biotransformation under microaerobic condition. The drug concentrations were measured over 6 timepoints collected between 0 and 12 hours of incubation by liquid-chromatography-coupled mass spectrometry (LC–MS); parameters: dose 5 uM, timepoint 0, 1.5, 3, 6, 9, 12 hours; conditions: 5 µM
[9] = The drug is tested on the gut metagenome community of A-08 with ENA study accession number: PRJEB31790 for biotransformation under anaerobic condition. The drug concentrations were measured over 7 timepoints collected between 0 and 12 hours of incubation by liquid-chromatography-coupled mass spectrometry (LC–MS); parameters: dose 5 uM, timepoint 0, 0.75, 1.5, 3, 6, 9, 12 hours; conditions: 5 µM
[10] = The drug is tested on the gut metagenome community of A-07 with ENA study accession number: PRJEB31790 for biotransformation under anaerobic condition. The drug concentrations were measured over 7 timepoints collected between 0 and 12 hours of incubation by liquid-chromatography-coupled mass spectrometry (LC–MS); parameters: dose 5 uM, timepoint 0, 0.75, 1.5, 3, 6, 9, 12 hours; conditions: 5 µM
[11] = The drug is tested on the gut metagenome community of T-05 with ENA study accession number: PRJEB31790 for biotransformation under anaerobic condition. The drug concentrations were measured over 7 timepoints collected between 0 and 12 hours of incubation by liquid-chromatography-coupled mass spectrometry (LC–MS); parameters: dose 5 uM, timepoint 0, 0.75, 1.5, 3, 6, 9, 12 hours; conditions: 5 µM
[12] = The drug is tested on Actinomyces graevenitzii strain: DSM15540 for biotransformation under microaerobic condition. The drug concentrations were measured over 6 timepoints collected between 0 and 12 hours of incubation by liquid-chromatography-coupled mass spectrometry (LC–MS); parameters: dose 5 uM, timepoint 0, 1.5, 3, 6, 9, 12 hours; conditions: 5 µM
[13] = The drug is tested on Enterococcus faecalis strain: ATCC29212 for biotransformation under microaerobic condition. The drug concentrations were measured over 6 timepoints collected between 0 and 12 hours of incubation by liquid-chromatography-coupled mass spectrometry (LC–MS); parameters: dose 5 uM, timepoint 0, 1.5, 3, 6, 9, 12 hours; conditions: 5 µM
[14] = The drug is tested on the gut metagenome community of A-04 with ENA study accession number: PRJEB31790 for biotransformation under anaerobic condition. The drug concentrations were measured over 7 timepoints collected between 0 and 12 hours of incubation by liquid-chromatography-coupled mass spectrometry (LC–MS); parameters: dose 5 uM, timepoint 0, 0.75, 1.5, 3, 6, 9, 12 hours; conditions: 5 µM
[15] = The drug is tested on Alloscardovia omnicolens strain: DSM21503 for biotransformation under microaerobic condition. The drug concentrations were measured over 6 timepoints collected between 0 and 12 hours of incubation by liquid-chromatography-coupled mass spectrometry (LC–MS); parameters: dose 5 uM, timepoint 0, 1.5, 3, 6, 9, 12 hours; conditions: 5 µM
[16] = The drug is tested on the gut metagenome community of A-01 with ENA study accession number: PRJEB31790 for biotransformation under anaerobic condition. The drug concentrations were measured over 7 timepoints collected between 0 and 12 hours of incubation by liquid-chromatography-coupled mass spectrometry (LC–MS); parameters: dose 5 uM, timepoint 0, 0.75, 1.5, 3, 6, 9, 12 hours; conditions: 5 µM
[17] = The drug is tested on Bacteroides vulgatus strain: DSM1447 for biotransformation under anaerobic condition. The drug concentrations were measured over 6 timepoints collected between 0 and 12 hours of incubation by liquid-chromatography-coupled mass spectrometry (LC–MS); parameters: dose 5 uM, timepoint 0, 1.5, 3, 6, 9, 12 hours; conditions: phocaeicola vulgatus, 5 µM
[18] = The drug is tested on Lactobacillus paracasei strain: ATCC27092 for biotransformation under microaerobic condition. The drug concentrations were measured over 6 timepoints collected between 0 and 12 hours of incubation by liquid-chromatography-coupled mass spectrometry (LC–MS); parameters: dose 5 uM, timepoint 0, 1.5, 3, 6, 9, 12 hours; conditions: lacticaseibacillus paracasei, 5 µM
[19] = The drug is tested on the gut metagenome community of A-05 with ENA study accession number: PRJEB31790 for biotransformation under microaerobic condition. The drug concentrations were measured over 7 timepoints collected between 0 and 12 hours of incubation by liquid-chromatography-coupled mass spectrometry (LC–MS); parameters: dose 5 uM, timepoint 0, 0.75, 1.5, 3, 6, 9, 12 hours; conditions: 5 µM
[20] = The drug is tested on Actinomyces naeslundi strain: DSM43013 for biotransformation under anaerobic condition. The drug concentrations were measured over 6 timepoints collected between 0 and 12 hours of incubation by liquid-chromatography-coupled mass spectrometry (LC–MS); parameters: dose 5 uM, timepoint 0, 1.5, 3, 6, 9, 12 hours; conditions: actinomyces naeslundii, 5 µM
[21] = The drug is tested on Lactobacillus reuteri strain: DSM20016 for biotransformation under anaerobic condition. The drug concentrations were measured over 6 timepoints collected between 0 and 12 hours of incubation by liquid-chromatography-coupled mass spectrometry (LC–MS); parameters: dose 5 uM, timepoint 0, 1.5, 3, 6, 9, 12 hours; conditions: limosilactobacillus reuteri, 5 µM
[22] = The drug is tested on Collinsella aerofaciens strain: DSM3979 for biotransformation under anaerobic condition. The drug concentrations were measured over 6 timepoints collected between 0 and 12 hours of incubation by liquid-chromatography-coupled mass spectrometry (LC–MS); parameters: dose 5 uM, timepoint 0, 1.5, 3, 6, 9, 12 hours; conditions: 5 µM
[23] = The drug is tested on the gut metagenome community of P-01 with ENA study accession number: PRJEB31790 for biotransformation under microaerobic condition. The drug concentrations were measured over 7 timepoints collected between 0 and 12 hours of incubation by liquid-chromatography-coupled mass spectrometry (LC–MS); parameters: dose 5 uM, timepoint 0, 0.75, 1.5, 3, 6, 9, 12 hours; conditions: 5 µM
[24] = The drug is tested on Gemella morbillorum strain: DSM20572 for biotransformation under microaerobic condition. The drug concentrations were measured over 6 timepoints collected between 0 and 12 hours of incubation by liquid-chromatography-coupled mass spectrometry (LC–MS); parameters: dose 5 uM, timepoint 0, 1.5, 3, 6, 9, 12 hours; conditions: 5 µM
[25] = The drug is tested on the gut metagenome community of A-07 with ENA study accession number: PRJEB31790 for biotransformation under microaerobic condition. The drug concentrations were measured over 7 timepoints collected between 0 and 12 hours of incubation by liquid-chromatography-coupled mass spectrometry (LC–MS); parameters: dose 5 uM, timepoint 0, 0.75, 1.5, 3, 6, 9, 12 hours; conditions: 5 µM

Measured: Bacterial Biotransformation

CCOc1nc2cccc(C(=O)O)c2n1Cc1ccc(-c2ccccc2-c2nnn[nH]2)cc1
Compound NOT metabolized: all assays above

CCOC(=O)[C@H](CCc1ccccc1)N[C@@H](C)C(=O)N1[C@H](C(=O)O)C[C@@H]2CCC[C@@H]21
Compound NOT metabolized: all assays above

C[C@@H](NCCCc1cccc(C(F)(F)F)c1)c1cccc2ccccc12
Compound NOT metabolized: all assays above

Reference: ChEMBL document CHEMBL5724806, “Unraveling interindividual differences and functional consequences of gut microbial metabolism of immunosuppressants” (2024)
